Experimental data reported in patent publication US7605168B2 (Plexxikon, Inc., priority 2004, dated 2009).
pIC50: −log10 of the molar value.

How the values were obtained:
[1] = tested on: TNF-α release from whole blood cultures stimulated with LPS; test: IC50 by TNF alpha production upon stimulation of whole blood cultures with LPS; type: cell-based; details: human whole blood (buffy coat) culture, 100 ng/ml LPS, 4 hours; read-out: h TNFα IC50
Procedure: Compounds were assayed to generate IC50 numbers based on the inhibition of TNF-α release from whole blood cultures, using the following assay protocol (see Table 5 for compounds tested and results). Inhibition of PDE4B results in the inhibition of TNF-α release by whole blood cultures stimulated with lipopolysaccharide (LPS). The measurement of TNF-α release was used to assess compounds as PDE4B inhibitors.
Compounds were provided in DMSO at 20 mM and 2 μl per well was added to one row of a dilution plate. Added 98 μl of RPMI 1640 media with 2.5% heat inactivated FBS to each well containing compound. The same media with 2% DMSO was prepared and 60 μl was added to each of the empty wells in the dilution plate. The compound was serially diluted 1:3 (30 μl to 60 μl of media) for a total of 8 concentrations per compound. Wells were also prepared with 50 μM roflumilast and piclamilast as 100% inhibition controls, and 2% DMSO in media was used as 0% inhibition control. A 20 μl aliquot of each sample was transferred to an assay plate in duplicate.
Human buffy coat was obtained from the Stanford Medical School Blood Center and diluted with 7 volumes of RPMI 1640 media with 1% penicillin/streptomycin and 2.5% heat inactivated FBS. A 160 μl aliquot of the diluted blood was added to each well of the assay plates, mixed and incubated for 1 hour at 37° C. in 5% CO2. LPS (Sigma catalog number L2637) that had been diluted to 1 mg/ml in PBS and stored as 20 μl aliquots at −20° C. was thawed and diluted 1000× to 1 μg/ml. A 20 μl aliquot of this was added to each sample (final concentration 100 ng/ml LPS) after the 1 hour incubation. A background sample was prepared without addition of LPS as well. The samples were mixed on a shaker for one minute at 900 RPM and incubated for 4 hours at 37° C. in 5% CO2. The plates were then put on a shaker for one minute at 900 RPM, followed by centrifuging at 100×g for 10 minutes, deceleration setting of 5. The top 75 μl of supernatant was carefully pipetted to a new plate and frozen at −20° C.
A 50 μl aliquot of incubation buffer (Biosource International Immunoassay Kit:Human TNF-α catalog number KHC3011) was added to each well of a plate coated with monoclonal antibody specific for hTNF-α (Biosource kit). The supernatant blood samples were thawed and a 50 μl aliquot along with 50 μl of diluent buffer (Biosource kit) were added to incubation buffer and the samples were incubated for 2 hours at room temperature. The samples were washed 4 times with 300 μl/well wash buffer (Biosource kit). A 100 μl aliquot of biotinylated anti-TNFalpha (Biosource kit) was added and the samples incubated for 1 hour at room temperature. The samples were washed 4 times with 300 μl/well wash buffer. A 100 μl aliquot of Streptavidin-HRP solution (BioSource kit) was added and the samples incubated for 30 minutes at room temperature. The samples were washed 4 times with 300 μl/well wash buffer. A 100 μl aliquot of Chromagen (Biosource kit) was added and the samples incubated in the dark for 30 minutes. A 100 μl aliquot of stop solution (2N H2SO4) was added to each sample and samples were read at 450 nm on a WallacVictor for 0.1 sec/well.

[2] = molecular target: T1, PDE4B2: full-length human PDE4B2 isozyme (Homo sapiens, UniProt Q07343); test: PDE4 IC50 determination by Scintillation Proximity Assay (SPA), full-length PDE4B2; type: biochemical; details: cell lysate, [3H]cAMP SPA
T1 construct: made in house; host or cells: baculovirus infected insect cells (pFastBacHT)
T1 sequence (Q07343 with tags, fused parts or gaps isoform Q07343-2): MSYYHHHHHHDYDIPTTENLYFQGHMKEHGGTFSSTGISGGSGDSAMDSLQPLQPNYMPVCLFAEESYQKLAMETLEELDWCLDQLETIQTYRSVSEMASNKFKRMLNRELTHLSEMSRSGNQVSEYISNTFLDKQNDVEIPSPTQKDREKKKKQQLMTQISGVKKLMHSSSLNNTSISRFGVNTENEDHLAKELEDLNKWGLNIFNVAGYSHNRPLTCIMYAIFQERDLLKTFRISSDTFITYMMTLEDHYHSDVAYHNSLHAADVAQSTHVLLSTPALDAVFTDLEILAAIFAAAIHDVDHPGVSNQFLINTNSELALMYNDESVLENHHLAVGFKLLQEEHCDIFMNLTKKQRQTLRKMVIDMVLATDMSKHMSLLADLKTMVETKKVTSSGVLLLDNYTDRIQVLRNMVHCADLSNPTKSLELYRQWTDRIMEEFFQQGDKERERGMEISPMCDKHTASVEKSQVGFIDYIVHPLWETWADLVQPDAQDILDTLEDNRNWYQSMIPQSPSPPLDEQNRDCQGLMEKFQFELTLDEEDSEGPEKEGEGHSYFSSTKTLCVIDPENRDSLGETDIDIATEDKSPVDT
Procedure: (§1) The enzyme was not purified from the cell lysates, so enzyme concentrations were not determined. Enzyme was stored in 50% glycerol at −20°.
(§2) IC50s were determined by Scintillation Proximity Assay (SPA). The principle of the assay is based on the fact that cAMP, the PDE4 substrate, binds weakly to Yittrium Silicate SPA beads, whereas AMP, the product of PDE4 hydrolysis binds strongly. Thus, the extent of PDE4 hydrolysis of a sample of [^3H]cAMP can be measured because only the [^3H]AMP produced by PDE4 hydrolysis will bind to the SPA beads and produce a scintillation signal.
(§3) In addition to the compound dilutions, each assay plate contained control wells with 1 μl of DMSO (to define 0% enzyme inhibition) or 1 μl of 200 μM roflumilast (to define 100% enzyme inhibition). Using a Beckman FX robot, 10 μl of [^3H] cAMP (Amersham TRK559) at […] in assay buffer (50 mM Tris, pH 7.5; 8.3 mM MgCl; 1.7 mM EGTA; 0.01% BSA) was transferred to each assay well. Next, 10 μl of PDE4 enzyme in assay buffer was added and the plates were shaken for 30 s. at 1000 rpm to start the cAMP hydrolysis reaction. The concentrations of enzyme used were: PDE4B, 80 ng/ml; PDE4D, 4 ng/ml; PDE4B2, 2.5 μl of 50% glycerol stock/ml; PDE4D5 0.083 μl of 50% glycerol stock/ml. Assay plates were covered and incubated for 30 min. at 30° C. Reactions were stopped by robotic addition of 10 μl of 5 mg/ml SPA beads (Amersham RPNQ0013) in 18 mM ZnSO4. The assay plates were covered with clear plastic film, centrifuged for 1 min. at 1000 RPM to settle the SPA beads, and counted using a Wallac TriLux scintillation counter. IC50's were calculated from the raw assay data by non-linear regression curve fitting using the Assay Explorer software package from MDL.

[3] = molecular target: T2, PDE4B: catalytic domain of human PDE4B from S152-S528 (Homo sapiens, UniProt Q07343); test: PDE4 IC50 determination by Scintillation Proximity Assay (SPA), PDE4B catalytic domain; type: biochemical; details: [3H]cAMP SPA, 30 min at 30° C.
T2 construct: The catalytic domain of human PDE4B from S152-S528; His6 (N, cleaved yes); thrombin cleavage site (N, cleaved yes); made in house; host or cells: E. coli BL21 (DE3) RIL
T2 sequence (Q07343 324-700): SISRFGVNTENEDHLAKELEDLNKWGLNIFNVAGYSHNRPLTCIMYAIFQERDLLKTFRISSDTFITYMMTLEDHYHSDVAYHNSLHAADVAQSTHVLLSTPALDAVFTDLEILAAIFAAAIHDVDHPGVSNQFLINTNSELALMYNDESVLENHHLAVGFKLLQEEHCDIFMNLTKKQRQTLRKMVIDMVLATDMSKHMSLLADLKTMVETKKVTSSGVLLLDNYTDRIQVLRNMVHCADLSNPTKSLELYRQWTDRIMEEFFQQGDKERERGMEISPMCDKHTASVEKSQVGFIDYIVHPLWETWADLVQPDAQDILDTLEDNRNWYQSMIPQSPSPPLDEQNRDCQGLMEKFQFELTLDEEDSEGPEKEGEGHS
Procedure: as §2
Enzyme was stored in 50% glycerol at −20°.
as §3

[4] = molecular target: T3, PDE4D5: full-length human PDE4D5 isozyme (Homo sapiens, UniProt Q08499); test: PDE4 IC50 determination by Scintillation Proximity Assay (SPA), full-length PDE4D5; type: biochemical; details: cell lysate, [3H]cAMP SPA
T3 construct: made in house; host or cells: baculovirus infected insect cells (pFastBacHT)
T3 sequence (Q08499 with tags, fused parts or gaps isoform Q08499-6): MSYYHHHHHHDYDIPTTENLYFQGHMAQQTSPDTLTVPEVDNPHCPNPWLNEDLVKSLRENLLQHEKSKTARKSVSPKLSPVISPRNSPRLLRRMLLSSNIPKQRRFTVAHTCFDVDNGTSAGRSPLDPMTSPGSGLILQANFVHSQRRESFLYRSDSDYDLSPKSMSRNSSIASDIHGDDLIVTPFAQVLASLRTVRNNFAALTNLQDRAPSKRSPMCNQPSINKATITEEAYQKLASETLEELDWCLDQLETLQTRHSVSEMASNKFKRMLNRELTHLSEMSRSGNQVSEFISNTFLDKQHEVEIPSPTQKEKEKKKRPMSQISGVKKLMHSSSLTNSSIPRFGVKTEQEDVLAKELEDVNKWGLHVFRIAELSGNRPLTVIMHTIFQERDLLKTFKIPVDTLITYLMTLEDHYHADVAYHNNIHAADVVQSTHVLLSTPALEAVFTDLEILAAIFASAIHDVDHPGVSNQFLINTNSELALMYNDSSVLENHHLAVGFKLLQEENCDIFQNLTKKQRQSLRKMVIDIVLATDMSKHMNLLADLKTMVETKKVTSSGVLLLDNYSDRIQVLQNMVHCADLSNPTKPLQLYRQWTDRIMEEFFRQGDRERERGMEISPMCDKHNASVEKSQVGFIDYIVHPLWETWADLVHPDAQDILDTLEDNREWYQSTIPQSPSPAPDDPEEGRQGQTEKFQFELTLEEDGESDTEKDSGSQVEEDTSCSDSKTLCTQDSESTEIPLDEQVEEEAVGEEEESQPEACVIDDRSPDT
Procedure: as §1, §2, §3

SMILES | pIC50 [1] | pIC50 [2] | pIC50 [3] | pIC50 [4]
COc1ccc(-c2cn(S(=O)(=O)Cc3ccccc3)c3ncccc23)cc1OC [Compound 8, 3-(3,4-dimethoxy-phenyl)-1-phenylmethanesulfonyl-1H-pyrrolo[2,3-b]pyridine] | ≥ 5.00 | > 5.00 | > 5.00 | > 5.00
COc1ccc(-c2cn(S(=O)(=O)Cc3cccc(Cl)c3)c3ncccc23)cc1OC [Compound 9, 1-(3-chloro-phenylmethanesulfonyl)-3-(3,4-dimethoxy-phenyl)-1H-pyrrolo[2,3-b]pyridine] | ≥ 5.00 | > 5.00 | > 5.00 | > 5.00
COc1ccc(-c2cn(S(=O)(=O)c3ccc4ccccc4c3)c3ncccc23)cc1OC [Compound 11, 3-(3,4-Dimethoxy-phenyl)-1-(naphthalene-2-sulfonyl)-1H-pyrrolo[2,3-b]pyridine] | ≥ 5.00 | > 5.00 | > 5.00 | > 5.00
CCOc1ccc2ccccc2c1C(=O)n1cc(-c2ccc(S(C)(=O)=O)cc2)c2cccnc21 [Compound 84, (2-Ethoxy-naphthalen-1-yl)-[3-(4-methanesulfonyl-phenyl)-pyrrolo[2,3-b]pyridin-1-yl]-methanone] | ≥ 5.00 | > 5.00 | – | > 5.00
CCOc1ccc2ccccc2c1C(=O)n1cc(-c2cccc(S(C)(=O)=O)c2)c2cccnc21 [Compound 86, (2-Ethoxy-naphthalen-1-yl)-[3-(3-methanesulfonyl-phenyl)-pyrrolo[2,3-b]pyridin-1-yl]-methanone] | ≥ 5.00 | > 5.00 | – | > 5.00
CCOc1ccc2ccccc2c1C(=O)n1cc(-c2cccc(C(=O)OCc3ccccc3)c2)c2cccnc21 [Compound 87, 3-[1-(2-Ethoxy-naphthalene-1-carbonyl)-1H-pyrrolo[2,3-b]pyridin-3-yl]-benzoic acid benzyl ester] | ≥ 5.00 | > 5.00 | – | > 5.00
COc1ccc2c(c1)c(-c1ccc(OC)c(OC)c1)cn2S(=O)(=O)c1cccc2cccnc12 [Compound 92, 8-[3-(3,4-Dimethoxy-phenyl)-5-methoxy-indole-1-sulfonyl]-quinoline] | ≥ 5.00 | > 5.00 | – | > 5.00
COc1ccc(-c2cn(S(=O)(=O)c3cccc4cccnc34)c3ccc(Cl)cc23)cc1OC [Compound 93, 8-[3-(3,4-Dimethoxy-phenyl)-5-chloro-indole-1-sulfonyl]-quinoline] | ≥ 5.00 | > 5.00 | – | > 5.00
COc1ccc(-c2cn(C(=O)c3ccc(C#N)cc3)c3ncccc23)cc1OC [Compound 106, 4-[3-(3,4-Dimethoxy-phenyl)-pyrrolo[2,3-b]pyridine-1-carbonyl]-benzonitrile] | ≥ 5.00 | > 5.00 | – | > 5.00
CCOc1ccc2ccccc2c1C(=O)n1cc(-c2ccc(OC)c(OC3CCCC3)c2)c2cccnc21 [Compound 119, [3-(3-Cyclopentyloxy-4-methoxy-phenyl)-pyrrolo[2,3-b]pyridin-1-yl]-(2-ethoxy-naphthalen-1-yl)-methanone] | ≥ 5.00 | > 5.00 | – | > 5.00
CCOc1ccc2ccccc2c1C(=O)n1cc(-c2cccc(C(N)=O)c2)c2cccnc21 [Compound 121, 3-[1-(2-Ethoxy-naphthalene-1-carbonyl)-1H-pyrrolo[2,3-b]pyridin-3-yl]-benzamide] | ≥ 5.00 | > 5.00 | – | > 5.00
CCOc1ccc2ccccc2c1C(=O)n1cc(-c2cccc(NS(C)(=O)=O)c2)c2cccnc21 [Compound 122, N-{3-[1-(2-Ethoxy-naphthalene-1-carbonyl)-1H-pyrrolo[2,3-b]pyridin-3-yl]-phenyl}-methanesulfonamide] | ≥ 5.00 | > 5.00 | – | > 5.00
COc1ccc(-c2cccc3[nH]ccc23)cc1OC [Compound 128, 4-(3,4-Dimethoxy-phenyl)-1H-indole] | ≥ 5.00 | > 5.00 | – | > 5.00
COc1ccc(-c2ccc3[nH]ccc3c2)cc1OC [Compound 129, 5-(3,4-Dimethoxy-phenyl)-1H-indole] | ≥ 5.00 | > 5.00 | – | > 5.00
COc1ccc(-c2ccc3c(ccn3S(=O)(=O)c3cccc4cccnc34)c2)cc1OC [Compound 130, 8-[5-(3,4-Dimethoxy-phenyl)-indole-1-sulfonyl]-quinoline] | ≥ 5.00 | > 5.00 | – | > 5.00
COc1ccc(-c2cccc3c2ccn3S(=O)(=O)c2cccc3cccnc23)cc1OC [Compound 131, 8-[4-(3,4-Dimethoxy-phenyl)-indole-1-sulfonyl]-quinoline] | ≥ 5.00 | > 5.00 | – | > 5.00
COc1ccc(-c2cnc3c(ccn3S(=O)(=O)c3ccccc3)c2)cc1OC [Compound 132, 1-Benzenesulfonyl-5-(3,4-dimethoxy-phenyl)-1H-pyrrolo[2,3-b]pyridine] | ≥ 5.00 | > 5.00 | – | > 5.00
COc1ccc(-c2cnc3[nH]cc(C#Cc4ccccc4)c3c2)cc1OC [Compound 138, 5-(3,4-Dimethoxy-phenyl)-3-phenylethynyl-1H-pyrrolo[2,3-b]pyridine] | ≥ 5.00 | > 5.00 | – | > 5.00
COC(=O)c1cccc(C#Cc2c[nH]c3ncc(-c4ccc(OC)c(OC)c4)cc23)c1 [Compound 139, 3-[5-(3,4-Dimethoxy-phenyl)-1H-pyrrolo[2,3-b]pyridin-3-ylethynyl]-benzoic acid methyl ester] | < 5.00 | > 5.00 | – | > 5.00
COc1ccc(-c2cnc3[nH]cc(C#Cc4cccc(C(=O)O)c4)c3c2)cc1OC [Compound 140, 3-[5-(3,4-Dimethoxy-phenyl)-1H-pyrrolo[2,3-b]pyridin-3-ylethynyl]-benzoic acid] | < 5.00 | > 5.00 | – | > 5.00
